{"source": "BindingDB's records for doi:10.1016/j.bmc.2019.07.003", "about": "(Tokyo Medical and Dental University, 2019)", "assay": "Transactivation of VDR in human Macrophage-like cell assessed as cell differentiation measured after 4 days by NBT dye-based assay"}
{"compound": "C[C@H](CCC(=O)O)[C@H]1CC[C@H]2[C@@H]3CC[C@@H]4C[C@H](OS(C)(=O)=O)CC[C@]4(C)[C@H]3CC[C@]12C", "values": [{"measurement": "EC50", "value": 1200, "unit": "nM"}]}
